# PMC3653315 (Biomolecular NMR assignments, 2011)
# Target: Ssu72 (dSsu72) (Drosophila melanogaster, UniProt Q9VWE4)
# Conditions: 25 mM Tris-HCl, 25 mM KCl, 2 mM dithiothreitol, 5% D2O, 30 °C; phosphate up to 25:1 molar ratio; active site loop
# Sequence of Ssu72 (dSsu72) (Q9VWE4 1-195): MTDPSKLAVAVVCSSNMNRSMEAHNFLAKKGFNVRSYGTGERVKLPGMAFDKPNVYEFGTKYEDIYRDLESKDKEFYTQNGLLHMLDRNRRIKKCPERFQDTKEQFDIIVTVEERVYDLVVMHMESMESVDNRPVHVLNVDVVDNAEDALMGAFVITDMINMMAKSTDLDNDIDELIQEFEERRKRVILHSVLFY
smiles,measurement,value
O=P(O)(O)O [inorganic phosphate],"NMR titration, 1H/15N-HSQC-TROSY chemical shift perturbation",large number of significant perturbations upon titration of wild-type Ssu72 with inorganic phosphate
